Entries after “also recorded” stand apart in the source; their conditions may differ. Starred links: 1 amine or outer side, 2 acyl side, 3 side chain; linkers in the order of their positions; H or OH if unused. Positions of bridges follow the written chain, without caps; N, C: chain ends. Non-standard residues stand in square brackets, D forms with d. Residues, ends and D or L forms follow the SMILES beside them. Chains are numbered I, II in the order given. Actinocin(9to1) = Cc1c2oc3c(C)ccc(C(=O)[*:1])c3nc-2c(C(=O)[*:2])c(N)c1=O; NMeV = CN[C@H](C(=O)O)C(C)C; Sar = CNCC(=O)O
What was measured:
MEPCE [1] = assay: MEPCE expression after treatment with CDK9 / transcription elongation inhibitors (FIG. 3); assay type: cell-based
MCL1 protein = assay: Western blot of anti-apoptotic and pro-apoptotic family members (FIG. 5); assay type: cell-based; conditions: lung cancer cell line
Experimental: After treatment with a CDKI, cells were lysed in modified RIPA buffer containing 50 mM TRIS pH 7.4, 150 mM NaCl, 1 mM EDTA, 1% Brij-35, 0.1% deoxycholate, protease inhibitors (Roche Molecular Biochemicals, Mannheim, Germany). SDS-PAGE (4-12% gel) was used to resolve the proteins in the lysate. After electrophoresis, the proteins were electrotransferred onto a polyvinylidene fluoride microporous membrane and immunodetected using standard procedures. FIG. 4 is a Western blot of the multiple myeloma line NCI-H929, treated with CDKI(7) or DMSO and gene expression analyzed at certain time points during the treatment. […] Thus, the reduction in expression of genes in response to CDKI seen at the mRNA level by microarray is confirmed at the protein level by Western blotting.
FIG. 5 is a Western blot comparing the reduction of expression of anti-apoptotic and pro-apoptotic family members after treatment with CDKI(8).

MCL1 = assay: Dog toxicology study, TaqMan mRNA in white blood cells after CDKI(12): MCL1; assay type: in vivo; conditions: any of the tested doses (0.1, 0.15 mg/kg), two probes, FIG. 11
Experimental: (§1) As part of a dog toxicology study, the pharmacodynamic markers MEPCE, MYC and MCL1 were measured by TaqMan® in white blood cells at various time points after CDKI(12) treatment.
(§2) The study had three groups of three dogs each. Dogs in Group 1 (#1001, #1002, and #1003) were treated with vehicle, dogs in Group 3 (#3001, #3002, and #3003) were treated with CDKI(12) at 0.1 mg/kg and dogs in Group 5 (#5001, #5002, and #5003) were treated with CDKI(12) at 0.15 mg/kg. Samples were collected before treatment 0 hour timepoint; 4 hours, 8 hours and 24 hours after treatment, for a total of 12 samples per group. Blood samples were received frozen in QIAGEN RNAprotect® Animal Blood tubes (Cat. #76554). RNA samples were extracted using the QIAGEN RNeasy® Protect Animal Blood kit (Cat. #73224). RNA samples were quantified using the RNA Quant-iT RNA assay® from Invitrogen (Cat. #Q32852) and read on an Invitrogen Qubit fluorometer (Cat. #Q32857). […] The relative quantification method was used to analyze the data; this method uses one sample as a calibrator sample and express mRNA levels relative to that sample. The results are expressed as RQ values (Relative Quantification) with RQ Min and RQ Max values determining a 95% confidence interval for the RQ value. The samples were grouped according to treatment and time point and data from three dogs, each measured in triplicate, were averaged. […]

MYC = assay: Dog toxicology study, TaqMan mRNA in white blood cells after CDKI(12): MYC; assay type: in vivo; conditions: any of the tested doses (0.1, 0.15 mg/kg), FIG. 10
Experimental: as §1, §2

MEPCE [2] = assay: Dog toxicology study, TaqMan mRNA in white blood cells after CDKI(12): MEPCE; assay type: in vivo
Experimental: as §1
The study had three groups of three dogs each. Dogs in Group 1 (#1001, #1002, and #1003) were treated with vehicle, dogs in Group 3 (#3001, #3002, and #3003) were treated with CDKI(12) at 0.1 mg/kg and dogs in Group 5 (#5001, #5002, and #5003) were treated with CDKI(12) at 0.15 mg/kg. Samples were collected before treatment 0 hour timepoint; 4 hours, 8 hours and 24 hours after treatment, for a total of 12 samples per group. Blood samples were received frozen in QIAGEN RNAprotect® Animal Blood tubes (Cat. #76554). RNA samples were extracted using the QIAGEN RNeasy® Protect Animal Blood kit (Cat. #73224). RNA samples were quantified using the RNA Quant-iT RNA assay® from Invitrogen (Cat. #Q32852) and read on an Invitrogen Qubit fluorometer (Cat. #Q32857). First strand cDNA synthesis was performed on 500 ng of RNA in a reaction volume of 20 μl using a High Capacity cDNA Reverse Transcription Kit from Applied Biosystems (Cat. #4368814). The cDNA samples were then diluted to 2 ng/μl (10 ng in 5 μl in each reaction). Each TaqMan® reaction contained: 5 μl of cDNA, 1.25 μl of each probe (18S rRNA and gene of interest), 5 μl of water and 12.5 μl of TaqMan® Gene Expression Master Mix from Applied Biosystems (Cat. #4369016) for a total volume of 25 μl. TaqMan® reactions were run in triplicates on an ABI 7500® machine. The 18S rRNA level was used as an endogenous control to correct for variations in cDNA input. The relative quantification method was used to analyze the data; this method uses one sample as a calibrator sample and express mRNA levels relative to that sample. The results are expressed as RQ values (Relative Quantification) with RQ Min and RQ Max values determining a 95% confidence interval for the RQ value. The samples were grouped according to treatment and time point and data from three dogs, each measured in triplicate, were averaged. The vehicle group at 0 hour timepoint was used as the calibrator sample thus allowing us to measure changes in mRNA levels in response to the test article at various time points. The logarithm of the RQ values are plotted so that increases or decreases from the initial value can be more easily represented; on a logarithmic scale a 10-fold increase or 10-fold decrease in RQ value are represented as +1 and −1 respectively.
We have previously shown that the MEPCE mRNA is particularly sensitive to CDK9 inhibition and any CDKI (see Examples above). […] The mRNA levels were determined by TaqMan® using the relative quantification method. The calibrator sample is vehicle at 0 hour timepoint. […]

Cc1c2oc3c(C)ccc(C(=O)N[C@@H]4C(=O)N[C@H](C(C)C)C(=O)N5CCC[C@H]5C(=O)N(C)CC(=O)N(C)[C@@H](C(C)C)C(=O)O[C@@H]4C)c3nc-2c(C(=O)N[C@@H]2C(=O)N[C@H](C(C)C)C(=O)N3CCC[C@H]3C(=O)N(C)CC(=O)N(C)[C@@H](C(C)C)C(=O)O[C@@H]2C)c(N)c1=O [Actinomycin D, reference compound] (I: T[dV]P[Sar][NMeV] / II: T[dV]P[Sar][NMeV]; ester I:1-I:C, II:1-II:C; linker I:N-II:N via Actinocin(9to1))
MEPCE expression (MEPCE [1]): reduces the expression of MEPCE

N[C@H]1CC[C@H](Nc2cc(-c3cccc(NCc4cccc(F)c4)n3)c(Cl)cn2)CC1 [CDKI(8)]
MEPCE expression (MEPCE [1]): reduced | expression of MCL1 protein (MCL1 protein; 2 hours after treatment): reduced | expression of MCL1 protein (MCL1 protein; after 16 hour exposure): further reduced

COC[C@@H](C)N[C@H]1CC[C@H](Nc2cc(-c3cccc(NCC4(C#N)CCOCC4)n3)c(Cl)cn2)CC1 [CDKI(12)]
MCL1 mRNA regulation (MCL1): does not show any significant down regulation; also recorded: not significantly down regulated | MYC mRNA regulation (MYC): does not show any significant down regulation; also recorded: not significantly down regulated | MEPCE mRNA regulation (MEPCE [2]; 0.1 mg/kg, FIG. 9, 0.1 mg/kg): less down regulation; also recorded: clear down regulation | MEPCE mRNA level at 4 and 8 hours (MEPCE [2]; 0.15 mg/kg, 4 and 8 hours): reduced | MEPCE mRNA level by 24 hours (MEPCE [2]; 0.15 mg/kg, 24 hours): returns to pretreatment levels | MEPCE mRNA regulation (MEPCE [2]; 0.15 mg/kg, FIG. 9): clear down regulation

Source: patent US20140005070A1, “MARKERS ASSOCIATED WITH CYCLIN-DEPENDENT KINASE INHIBITORS” (Novartis AG, priority 2011, published 2014)
